US12492195B2, “Preparation method for and crystal form of 3-aryloxy-3-five-membered heteroaryl-propylamine compound” (Zhangzhou Pien Tze Huang Pharmaceutical Co., Ltd., priority 2020, dated 2025)
Values after ≈ are worked out from the molar mass of the structure shown. Where two headings read alike, the source gives them in different places.

Tests used:
[1] = Hygroscopicity test by dynamic moisture absorption (DVS); assay type: physicochemical
Method: Dynamic moisture adsorption (DVS) analysis: the instrument is a DVS Intrinsic produced by SMS company (Surface Measurement Systems); temperature, 25° C.; carrier gas, flow rate: nitrogen, 200 ml/min; mass change per unit time: 0.002%/min: relative humidity range: 0/oRH-95% RH.
Dynamic moisture absorption (DVS) was used to test their hygroscopicity.

[2] = Method: In the experiment, the initial dosage of crystal form A of the hydrochloride salt in H2O, SGF, and FaSSIF was about 20 mg/mL, and the initial dosage in FeSSIF was about 40 mg/mL. […] The samples were sealed and mounted on a rotating disk rotating at 25 rpm, and the rotating disk was placed in a 37° C. incubator. Samples were taken at time points 1, 4 and 24 hours of equilibration, and the filtrate was separated and tested concentration by HPLC.
[3] = 24 hours
Method: The crystal form A of the hydrochloride salt of the compound of formula Ic-1 was tested for equilibrium solubility in water for 24 hours at room temperature. The form A was dosed with about 300 mg/mL solid feed, and magnetic stirred (750 rpm) in water for 24 hours to obtain a suspension. After centrifugation, the supernatant was filtered through a 0.22-μm PTFE membrane and then tested by HPLC, and the obtained solid was tested by XRPD.

CNCC[C@@H](Oc1cccc2ccoc12)c1cccs1 [Form A]
change in crystal form (XRPD) before and after the DVS test [1]: no change in crystal form was observed
solubility ([2]; FaSSIF pH 6.5, 37° C., 1 hour): 20.2 mg/mL (≈ 70.3 mM)
solubility ([2]; FaSSIF pH 6.5, 37° C., 4 hours): 20.7 mg/mL (≈ 72 mM)
solubility ([2]; FaSSIF pH 6.5, 37° C., 24 hours): 20.8 mg/mL (≈ 72.4 mM)
solubility ([2]; FeSSIF pH 5.0, 37° C., 1 hour): 32.8 mg/mL (≈ 114 mM)
solubility ([2]; FeSSIF pH 5.0, 37° C., 4 hours): 36.8 mg/mL (≈ 128 mM)
solubility ([2]; FeSSIF pH 5.0, 37° C., 24 hours): 39.4 mg/mL (≈ 137 mM)
solubility ([2]; SGF pH 1.9, 37° C., 1 hour): 16.5 mg/mL (≈ 57.4 mM)
solubility ([2]; SGF pH 1.9, 37° C., 4 hours): 14.8 mg/mL (≈ 51.5 mM)
solubility ([2]; SGF pH 1.9, 37° C., 24 hours): 11.1 mg/mL (≈ 38.6 mM)
solubility ([2]; Water, 37° C., 1 hour): 16.7 mg/mL (≈ 58.1 mM)
solubility ([2]; Water, 37° C., 4 hours): 17.7 mg/mL (≈ 61.6 mM)
solubility ([2]; Water, 37° C., 24 hours): 17.3 mg/mL (≈ 60.2 mM)
solubility in water (concentration of free state) ([3]; room temperature): 21 ± 0.5 mg/mL
solubility in water converted to hydrochloride concentration ([3]; room temperature): 237.3 mg/mL (≈ 826 mM)
solid crystal form after the equilibrium solubility test (XRPD) ([3]; water): solid crystal form did not change
